Assay results taken from patent US10501493B2, “Broad spectrum antibiotics” (priority 2011, dated 2019).
Values after ≈ are worked out from the molar mass of the structure shown.

Assays:
[1] = system: E. coli MIG1655 LepB(P84L); experiment: In vitro antimicrobial activity, MIC by broth micro-dilution; assay type: cell-based; conditions: Escherichia coli
In short: (§1)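 CLSI broth micro-dilution MIC against two-fold serial compound dilutions. Inoculum came from colonies grown 24 h at 35° C. or 28° C., suspended in cation-adjusted Mueller Hinton broth at 1*10^7 CFU/ml, of which 5 μl was added per 100 μl well. LepB(P84L) is a proline-mutant SPase strain with heightened arylomycin susceptibility.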

[2] = system: S. pneumoniae D39; experiment: as above; assay type: cell-based; conditions: Streptococcus pneumoniae; S. pneumoniae D39; read-out: MIC
[3] = system: S. aureus NCTC-8325 SpsB(P295); experiment: as above; assay type: cell-based; conditions: Staphylococcus aureus, NCTC8325
[4] = system: S. agalactiae COH-1; experiment: as above; assay type: cell-based; conditions: Streptococcus agalactiae, COH1; S. agalactiae COH-1; read-out: MIC
[5] = system: R. equi DSM 6939; experiment: as above; assay type: cell-based; conditions: Rhodococcus (subgen. Prescottella) equi, DSM6939, read-out: MIC
In short: as §1

[6] = system: S. pneumoniae R800; experiment: as above; assay type: cell-based; conditions: Streptococcus pneumoniae, read-out: MIC
In short: as §1

[7] = system: S. pyogenes M15448; experiment: as above; assay type: cell-based; conditions: Streptococcus pyogenes; S. pyogenes M15448; read-out: MIC
In short: as §1

[8] = system: S. epidermidis ATCC 12228; experiment: as above; assay type: cell-based; conditions: Staphylococcus epidermidis, ATCC12228, read-out: MIC
[9] = system: S. aureus ATCC 29213; experiment: as above; assay type: cell-based; conditions: Staphylococcus aureus, ATCC29213, read-out: MIC
[10] = system: S. pyogenes ATCC 19615; experiment: as above; assay type: cell-based; conditions: Streptococcus pyogenes, ATCC19615, read-out: MIC
[11] = system: S. epidermidis RP62A; experiment: as above; assay type: cell-based; conditions: Staphylococcus epidermidis; S. epidermidis RP62A; read-out: MIC
[12] = system: S. epidermidis RP62A SpsIB(S29P); experiment: as above; assay type: cell-based; conditions: Staphylococcus epidermidis
[13] = system: S. epidermidis RP62A SpsIB(S31P); experiment: as above; assay type: cell-based; conditions: Staphylococcus epidermidis
[14] = system: S. agalactiae ATCC 13813; experiment: as above; assay type: cell-based; conditions: Streptococcus agalactiae, ATCC13813, read-out: MIC
[15] = system: P. aeruginosa PA01 LepB(P84L); experiment: as above; assay type: cell-based; conditions: Pseudomonas aeruginosa
In short: as §1

[16] = system: C. glutamicum DSM 44475; experiment: as above; assay type: cell-based; conditions: Corynebacterium glutamicum, DSM44475, read-out: MIC
[17] = biological target: T1, S. aureus SPase (Staphylococcus aureus, UniProt P0A070); experiment: Steady state binding constant (Kd) determination by fluorescence increase
T1 construct: Full length His-tagged S. aureus SPase protein was expressed similarly; His-tag; made in house; host or cells: E. coli BL21(DE3)
Description: (§2) Full length His-tagged E. coli SPase proteins were expressed in E. coli BL21(DE3) containing the plasmid pET23-lepB, P. A. Smith et al. Chem Biol 2010, 1223-1231. Briefly, saturated overnight cultures grown in 20 ml of Luria-Bertani medium supplemented with ampicillin were subcultures into 1.5 L of Luria-Bertani, and shaken at 37° C. until an optical density at 600 nm of 0.4-0.5 was achieved. Protein expression was induced with Isopropyl β-D-1-thiogalactopyranoside (ITPG) at a final concentration of […], and purified using nickel affinity chromatography. Full length His-tagged S. aureus SPase protein was expressed similarly from E. coli BL21(DE3) containing the plasmid pCDF1-SaSpsB or pCDF1-SaSpsB(P29S) and purified similarly to the E. coli protein with the following exceptions. SPase protein was solubilized using 300 mM NaCl, 20 mM Tris pH 8.06, 5 mM Imidazole, 10% glycerol, 1% Triton X-100, prior to purification in Ni-NTA Superflow resin and resin bound protein was washed in a similar buffer containing 1% Elugent in place of Triton X-100 prior to protein eluted in wash buffer supplemented with 300 mM imidazole. Protein purify was judged to exceed 95% by visual inspection of SDS-PAGE followed by Comassie staining. All protein concentrations were determined by BCA assay.
(§3) Steady state binding constants (Kds) of compounds were determined by measuring an increase in fluorescence (λex=280 nm, λem=405 nm) that occurs upon binding to E. coli or S. aureus SPase protein. Two-fold serial dilutions of compounds were prepared in 100% DMSO, and compounds were diluted into binding buffer consisting of 100 mM NaCl, 20 mM Tris-HCl pH 7.4, 1 mM EDTA, 1% n-octyl-3-glucopyranoside (Anatrace), and 10% glycerol, with the final DMSO concentration equal to 1%. 70 μl of the resulting solutions containing various concentrations of compound in binding buffer were aliquoted into triplicate wells of a black polystyrene 384-well plate. 5 μl of blank solution or E. coli or S. aureus protein at concentrations of 750 or 3750 nM respectively, were added to each set of wells for a given inhibitor concentration. Plates were incubated for 14 hours and fluorescence read on an EnVision Multilable plate reader (Perkin Elmer™). Differences in fluorescence values between wells with and without protein were determined and background corrected for protein auto fluorescence. The corrected fluorescence difference data was fit to the quadratic equilibrium binding curve using the non-linear regression analysis software Solver (Frontline Systems®) run in Excel 2010, (Microsoft®), using experimentally determined quantum efficiency constants to convert fluorescence into nanomoles of protein/compound complex.

[18] = biological target: T2, E. coli SPase (Escherichia coli, UniProt P00803); experiment: as above
T2 construct: Full length His-tagged E. coli SPase proteins were expressed in E. coli BL21(DE3); His-tag; made in house; host or cells: E. coli BL21(DE3)
Description: as §2, §3

For CCCCCCCCCCCCCCCC(=O)N(C)[C@H](CO)C(=O)N[C@H](C)C(=O)NCC(=O)N(C)[C@@H]1C(=O)N[C@@H](C)C(=O)N[C@H](C(=O)N[C@H](C)C(=O)C(=O)N(C)C)Cc2ccc(O)c(c2)-c2cc1ccc2O [Compound 29], the MIC [1] was 16 µg/mL (≈ 15.9 µM), the MIC [2] was 16 µg/mL (≈ 15.9 µM) and the MIC [3] was greater than 64 µg/mL. The MIC [4] was 64 µg/mL (≈ 63.5 µM), the MIC [5] was greater than 64 µg/mL and the MIC [6] was 32 µg/mL (≈ 31.8 µM). The MIC [7] was 64 µg/mL (≈ 63.5 µM), the MIC [8] was 32 µg/mL (≈ 31.8 µM) and the MIC [9] was greater than 64 µg/mL. It also gave an MIC [10] of 16 µg/mL (≈ 15.9 µM), an MIC [11] of 8 µg/mL (≈ 7.94 µM) and an MIC [12] greater than 64 µg/mL. For the same molecule, the MIC [13] was greater than 64 µg/mL, the MIC [14] was 32 µg/mL (≈ 31.8 µM) and the MIC [15] was greater than 64 µg/mL. The MIC [16] was 32 µg/mL (≈ 31.8 µM).

With CCCCCCCCCCCCCCCC(=O)N(C)[C@H](CO)C(=O)N[C@H](C)C(=O)NCC(=O)N(C)[C@@H]1C(=O)N[C@@H](C)C(=O)N[C@H](C(=O)NCC(=O)N2CCC[C@H]2C(=O)O)Cc2ccc(O)c(c2)-c2cc1ccc2O [Compound 31] the MIC [1] was 16 µg/mL (≈ 15.5 µM), the MIC [2] was 4 µg/mL (≈ 3.86 µM) and the MIC [3] was greater than 64 µg/mL. It also gave an MIC [4] greater than 64 µg/mL, an MIC [5] greater than 64 µg/mL and an MIC [6] of 8 µg/mL (≈ 7.73 µM). For the same molecule, the MIC [7] was 16 µg/mL (≈ 15.5 µM), the MIC [8] was 32 µg/mL (≈ 30.9 µM) and the MIC [9] was greater than 64 µg/mL. It also gave an MIC [10] of 8 µg/mL (≈ 7.73 µM), an MIC [11] of 8 µg/mL (≈ 7.73 µM) and an MIC [12] greater than 64 µg/mL. For the same molecule, the MIC [13] was greater than 64 µg/mL, the MIC [14] was 8 µg/mL (≈ 7.73 µM) and the MIC [15] was greater than 64 µg/mL. It also gave an MIC [16] greater than 64 µg/mL.

For CCCCCCCCCCCCCCCC(=O)N(C)[C@H](CO)C(=O)N[C@H](C)C(=O)NCC(=O)N(C)[C@@H]1C(=O)N[C@@H](C)C(=O)N[C@H](C(N)=O)Cc2ccc(O)c(c2)-c2cc1ccc2O [Compound 11], the Kd [17] was 2100 nM, the Kd [18] was 100 nM and the MIC [1] was 4 µg/mL (≈ 4.54 µM). For the same molecule, the MIC [2] was 64 µg/mL (≈ 72.7 µM), the MIC [3] was 32 µg/mL (≈ 36.4 µM) and the MIC [11] was 2 µg/mL (≈ 2.27 µM). It also gave an MIC [12] greater than 64 µg/mL, an MIC [13] greater than 64 µg/mL and an MIC [15] greater than 64 µg/mL.

For CCCCCCCCCCCCCCCC(=O)N(C)[C@H](CO)C(=O)N[C@H](C)C(=O)NCC(=O)N(C)[C@@H]1C(=O)N[C@@H](C)C(=O)N[C@H](C(=O)N[C@@H](C)C(=O)C(=O)N(C)C)Cc2ccc(O)c(c2)-c2cc1ccc2O [Compound 28], the MIC [1] was 8 µg/mL (≈ 7.94 µM), the MIC [2] was 8 µg/mL (≈ 7.94 µM) and the MIC [3] was 32 µg/mL (≈ 31.8 µM). The MIC [4] was 32 µg/mL (≈ 31.8 µM), the MIC [5] was greater than 64 µg/mL and the MIC [6] was 16 µg/mL (≈ 15.9 µM). For the same molecule, the MIC [7] was 32 µg/mL (≈ 31.8 µM), the MIC [8] was 16 µg/mL (≈ 15.9 µM) and the MIC [9] was greater than 64 µg/mL. It also gave an MIC [10] of 16 µg/mL (≈ 15.9 µM), an MIC [11] of 4 µg/mL (≈ 3.97 µM) and an MIC [12] greater than 64 µg/mL. The MIC [13] was greater than 64 µg/mL, the MIC [14] was 16 µg/mL (≈ 15.9 µM) and the MIC [15] was greater than 64 µg/mL. The MIC [16] was 32 µg/mL (≈ 31.8 µM).

With CCCCCCCCCCCCCCCC(=O)N(C)[C@H](CO)C(=O)N[C@H](C)C(=O)NCC(=O)N(C)[C@@H]1C(=O)N[C@@H](C)C(=O)N[C@H](C(=O)N[C@@H](C)C(=O)N2CCC[C@H]2C(=O)O)Cc2ccc(O)c(c2)-c2cc1ccc2O [Compound 25] the MIC [1] was 8 µg/mL (≈ 7.62 µM), the MIC [2] was 8 µg/mL (≈ 7.62 µM) and the MIC [3] was greater than 64 µg/mL. It also gave an MIC [4] greater than 64 µg/mL, an MIC [5] greater than 64 µg/mL and an MIC [6] of 8 µg/mL (≈ 7.62 µM). It also gave an MIC [7] of 16 µg/mL (≈ 15.2 µM), an MIC [8] of 16 µg/mL (≈ 15.2 µM) and an MIC [9] of 64 µg/mL (≈ 61 µM). For the same molecule, the MIC [10] was 16 µg/mL (≈ 15.2 µM), the MIC [11] was 4 µg/mL (≈ 3.81 µM) and the MIC [12] was 64 µg/mL (≈ 61 µM). It also gave an MIC [13] greater than 64 µg/mL, an MIC [14] of 8 µg/mL (≈ 7.62 µM) and an MIC [15] greater than 64 µg/mL. It also gave an MIC [16] of 64 µg/mL (≈ 61 µM).

CCCCCCCCCCCCCCCC(=O)N(C)[C@H](CO)C(=O)N[C@H](C)C(=O)NCC(=O)N(C)[C@@H]1C(=O)N[C@@H](C)C(=O)N[C@H](C(=O)NCC(N)=O)Cc2ccc(O)c(c2)-c2cc1ccc2O [Compound 26] was tested, and the MIC [1] was 8 µg/mL (≈ 8.54 µM), the MIC [2] was 8 µg/mL (≈ 8.54 µM) and the MIC [3] was greater than 64 µg/mL. The MIC [4] was greater than 64 µg/mL, the MIC [5] was 64 µg/mL (≈ 68.3 µM) and the MIC [6] was 16 µg/mL (≈ 17.1 µM). It also gave an MIC [7] greater than 64 µg/mL, an MIC [8] of 32 µg/mL (≈ 34.1 µM) and an MIC [9] greater than 64 µg/mL. For the same molecule, the MIC [10] was 8 µg/mL (≈ 8.54 µM), the MIC [11] was 4 µg/mL (≈ 4.27 µM) and the MIC [12] was greater than 64 µg/mL. For the same molecule, the MIC [13] was greater than 64 µg/mL, the MIC [14] was 16 µg/mL (≈ 17.1 µM) and the MIC [15] was greater than 64 µg/mL. It also gave an MIC [16] of 32 µg/mL (≈ 34.1 µM).
